Experimental data reported in patent publication US20250009742A1 (priority 2021, published 2025).

Key:
[1] = system: intracellular HBV DNA; test: Real-time PCR for intracellular HBV DNA in HepAD38 cells; format: cell-based; settings: Hepatitis B virus, HePAD38, 65 h, 65 hours treatment
[2] = Cell viability assay (EZ-Cytox), cytotoxicity; format: cell-based; settings: human, HepAD38 cells; for viability at 65 h, 100 µM: read-out: Cytotoxicity % Livability (@100 μM)
Protocol: HepAD38 cells were cultured for 2 days in Dulbecco's Modified Eagle's medium (Welgene, LM001-05) supplemented with 10% FBS without tetracycline. […] After 65 hours of treatment, viability was measured using EZ-Cytox cell viability assay kit (Daeil Lab Service) according to the manufacturer's instructions. The absorbance was measured at 450 nm using a spectrophotometer (Spark, Tecan).

| SMILES | IC50 [1] | CC50 at 65 h [2] | viability at 65 h, 100 µM [2] |
| --- | --- | --- | --- |
| COc1ncc(N(Cc2cc(C(F)(F)F)[nH]n2)C(=O)Nc2cc(C)c(F)c(Cl)n2)cn1 [Example 142, 3-(6-chloro-5-fluoro-4-methylpyridin-2-yl)-1-(2-methoxypyrimidin-5-yl)-1-((5-(trifluoromethyl)-1H-pyrazol-3-yl)methyl)urea] | 0.1 µM | 46.9 µM | 21% |
| COc1ncc(N(Cc2cc(C(F)(F)F)[nH]n2)C(=O)Nc2cccc(C#N)c2)cn1 [Example 144, 3-(3-cyanophenyl)-1-(2-methoxypyrimidin-5-yl)-1-((5-(trifluoromethyl)-1H-pyrazol-3-yl)methyl)urea] | 0.22 µM | 59.9 µM | 6.3% |
| COc1ncc(N(Cc2cc(C(F)(F)F)[nH]n2)C(=O)Nc2cccc(C#N)n2)cn1 [Example 145, 3-(6-cyanopyridin-2-yl)-1-(2-methoxypyrimidin-5-yl)-1-((5-(trifluoromethyl)-1H-pyrazol-3-yl)methyl)urea] | > 1.1 µM | > 100 µM | 99.4% |
| COc1ncc(N(Cc2cc(C(F)(F)F)[nH]n2)C(=O)Nc2ccnc(C#N)c2)cn1 [Example 146, 3-(2-cyanopyridin-4-yl)-1-(2-methoxypyrimidin-5-yl)-1-((5-(trifluoromethyl)-1H-pyrazol-3-yl)methyl)urea] | 0.12 µM | > 100 µM | 112% |
| COc1ncc(N(Cc2cc(C(F)(F)F)[nH]n2)C(=O)Nc2cc(F)c(F)c(C#N)n2)cn1 [Example 151, 3-(6-cyano-4,5-difluoropyridin-2-yl)-1-(2-methoxypyrimidin-5-yl)-1-((5-(trifluoromethyl)-1H-pyrazol-3-yl)methyl)urea] | > 1.1 µM | > 100 µM | 87.4% |
| COc1ncc(N(Cc2cc(C(F)(F)F)[nH]n2)C(=O)Nc2ccc(C#N)c(C(F)F)c2)cn1 [Example 152, 3-(4-cyano-3-(difluoromethyl)phenyl)-1-(2-methoxypyrimidin-5-yl)-1-((5-(trifluoromethyl)-1H-pyrazol-3-yl)methyl)urea] | 0.026 µM | > 100 µM | 82.7% |
| COc1ncc(N(Cc2cc(C#N)[nH]n2)C(=O)Nc2ccc(C#N)c(C(F)F)c2)cn1 [Example 153, 1-((5-cyano-1H-pyrazol-3-yl)methyl)-3-(4-cyano-3-(difluoromethyl)phenyl)-1-(2-methoxypyrimidin-5-yl)urea] | 0.21 µM | > 100 µM | 94.2% |
| COc1ncc(N(Cc2cc(C(F)(F)F)[nH]n2)C(=O)Nc2ccc(F)c(C#N)c2)cn1 [Example 154, 3-(3-cyano-4-fluorophenyl)-1-(2-methoxypyrimidin-5-yl)-1-((5-(trifluoromethyl)-1H-pyrazol-3-yl)methyl)urea] | 0.013 µM | > 100 µM | 73% |
| COc1ncc(N(Cc2cc(C(F)F)[nH]n2)C(=O)Nc2ccc(F)c(C#N)c2)cn1 [Example 155, 3-(3-cyano-4-fluorophenyl)-1-((5-(difluoromethyl)-1H-pyrazol-3-yl)methyl)-1-(2-methoxypyrimidin-5-yl)urea] | 0.035 µM | > 100 µM | 97% |
| COc1ncc(N(Cc2cc(C(F)(F)F)[nH]n2)C(=O)Nc2ccc(C#N)c(F)c2)cn1 [Example 156, 3-(4-cyano-3-fluorophenyl)-1-(2-methoxypyrimidin-5-yl)-1-((5-(trifluoromethyl)-1H-pyrazol-3-yl)methyl)urea] | 0.083 µM | > 100 µM | 107% |
| COc1cc(N(Cc2cc(C(F)(F)F)[nH]n2)C(=O)Nc2ccc(F)c(C#N)c2)cnn1 [Example 163, 3-(3-cyano-4-fluorophenyl)-1-(6-methoxypyridazin-4-yl)-1-((5-(trifluoromethyl)-1H-pyrazol-3-yl)methyl)urea] | 0.007 µM | > 100 µM | 99% |
| COc1ncc(N(Cc2cc(C(F)(F)F)[nH]n2)C(=O)Nc2cc(N(C)C)c(F)c(C#N)n2)cn1 [Example 164, 3-(6-cyano-4-(dimethylamino)-5-fluoropyridin-2-yl)-1-(2-methoxypyrimidin-5-yl)-1-((5-(trifluoromethyl)-1H-pyrazol-3-yl)methyl)urea] | > 1.1 µM | > 100 µM | 100% |
| COc1ccc(N(Cc2cc(C(F)(F)F)[nH]n2)C(=O)Nc2ccc(F)c(F)c2)cn1 [Example 168, 3-(3,4-difluorophenyl)-1-(6-methoxypyridin-3-yl)-1-((5-(trifluoromethyl)-1H-pyrazol-3-yl)methyl)urea] | 0.073 µM | > 100 µM | 59.8% |
| COc1ncc(N(Cc2cc(C(F)(F)F)[nH]n2)C(=O)Nc2cc(F)c(F)cn2)cn1 [Example 172, 3-(4,5-difluoropyridin-2-yl)-1-(2-methoxypyrimidin-5-yl)-1-((5-(trifluoromethyl)-1H-pyrazol-3-yl)methyl)urea] | 0.24 µM | > 100 µM |  |
| COc1ncc(N(Cc2cc(C(F)(F)F)[nH]n2)C(=O)Nc2nccc(F)c2F)cn1 [Example 173, 3-(3,4-difluoropyridin-2-yl)-1-(2-methoxypyrimidin-5-yl)-1-((5-(trifluoromethyl)-1H-pyrazol-3-yl)methyl)urea] | > 1.1 µM | > 100 µM |  |
| COc1ncc(N(Cc2cc(C(F)(F)F)[nH]n2)C(=O)Nc2cncc(C(F)F)c2)cn1 [Example 174, 3-(5-(difluoromethyl)pyridin-3-yl)-1-(2-methoxypyrimidin-5-yl)-1-((5-(trifluoromethyl)-1H-pyrazol-3-yl)methyl)urea] | 0.48 µM | > 100 µM | 96.2% |
| COc1ncc(N(Cc2cc(C(F)(F)F)[nH]n2)C(=O)Nc2cccc(C(F)F)c2)cn1 [Example 176, 3-(3-(difluoromethyl)phenyl)-1-(2-methoxypyrimidin-5-yl)-1-((5-(trifluoromethyl)-1H-pyrazol-3-yl)methyl)urea] | 0.036 µM | > 100 µM | 53.5% |
| COc1ncc(N(Cc2cc(C(F)F)[nH]n2)C(=O)Nc2cccc(C(F)F)c2)cn1 [Example 178, 1-((5-(difluoromethyl)-1H-pyrazol-3-yl)methyl)-3-(3-(difluoromethyl)phenyl)-1-(2-methoxypyrimidin-5-yl)urea] | 0.022 µM | > 100 µM | 68.5% |
| COc1ncc(N(Cc2cc(C(F)F)[nH]n2)C(=O)Nc2cccc(C(F)F)n2)cn1 [Example 179, 1-((5-(difluoromethyl)-1H-pyrazol-3-yl)methyl)-3-(6-(difluoromethyl)pyridin-2-yl)-1-(2-methoxypyrimidin-5-yl)urea] | 0.7 µM | > 100 µM | 79.3% |
| COc1ncc(N(Cc2cc(C#N)[nH]n2)C(=O)Nc2cccc(C(F)F)c2)cn1 [Example 180, 1-((5-cyano-1H-pyrazol-3-yl)methyl)-3-(3-(difluoromethyl)phenyl)-1-(2-methoxypyrimidin-5-yl)urea] | 0.064 µM | > 100 µM | 88.1% |
| COC12CC(N(Cc3cc(C(F)(F)F)[nH]n3)C(=O)Nc3cccc(C(F)F)c3)(C1)C2 [Example 181, 3-(3-(difluoromethyl)phenyl)-1-(3-methoxybicyclo[1.1.1]pentan-1-yl)-1-((5-(trifluoromethyl)-1H-pyrazol-3-yl)methyl)urea] | 0.13 µM | > 100 µM | 64.9% |
| CCOCCc1c(CN(C(=O)Nc2ccc(F)cc2)c2ccc(OC)nc2)n[nH]c1C(F)(F)F [Example 182, 1-((4-(2-ethoxyethyl)-5-(trifluoromethyl)-1H-pyrazol-3-yl)methyl)-3-(4-fluorophenyl)-1-(6-methoxypyridin-3-yl)urea] | > 1.1 µM | > 100 µM | 104% |
| COc1ncc(N(Cc2cc(C(F)(F)F)[nH]n2)C(=O)Nc2cnc(F)nc2)cn1 [Example 186, 3-(2-fluoropyrimidin-5-yl)-1-(2-methoxypyrimidin-5-yl)-1-((5-(trifluoromethyl)-1H-pyrazol-3-yl)methyl)urea] | > 1.1 µM | > 100 µM | 86.4% |
| COc1ncc(N(Cc2cc(C(F)(F)F)[nH]n2)C(=O)Nc2cc(F)ccn2)cn1 [Example 187, 3-(4-fluoropyridin-2-yl)-1-(2-methoxypyrimidin-5-yl)-1-((5-(trifluoromethyl)-1H-pyrazol-3-yl)methyl)urea] | > 1.1 µM | > 100 µM |  |
| COc1ccc(N(Cc2cc(C(F)(F)F)[nH]n2)C(=O)Nc2ccc(F)c(C(F)F)c2)cn1 [Example 188, 3-(3-(difluoromethyl)-4-fluorophenyl)-1-(6-methoxypyridin-3-yl)-1-((5-(trifluoromethyl)-1H-pyrazol-3-yl)methyl)urea] | 0.016 µM | > 100 µM | 97.9% |
| COc1ncc(N(Cc2cc(C(F)(F)F)[nH]n2)C(=O)Nc2ccc(F)c(C(F)F)c2)cn1 [Example 189, 3-(3-(difluoromethyl)-4-fluorophenyl)-1-(2-methoxypyrimidin-5-yl)-1-((5-(trifluoromethyl)-1H-pyrazol-3-yl)methyl)urea] | 0.0065 µM | > 100 µM | 58% |
| COc1ncc(N(Cc2cc(C(F)(F)F)[nH]n2)C(=O)Nc2cc(C(F)F)c(F)cn2)cn1 [Example 192, 3-(4-(difluoromethyl)-5-fluoropyridin-2-yl)-1-(2-methoxypyrimidin-5-yl)-1-((5-(trifluoromethyl)-1H-pyrazol-3-yl)methyl)urea] | 0.059 µM | > 100 µM | 104% |
